This test concerns Plasmodium berghei. Nature of the test: Luciferase/luciferin-expressing antifolate-resistant parasites were used to infect a culture of HepG2 cells that were pre-incubated with compounds. Infected hepatocytes emit light due to the luciferase reaction. Assay results are presented as the percent inhibition of light emission compared to control. […]. The class given is functional. The conditions noted are these: sporozoite; for IC90: read-out: LUCIFERASE INFECTION ASSAY - IC90.

Broadly, the IC50 is the concentration that inhibits the measured activity by half. What is called IC90 is the point of the concentration-response curve where the effect stands at 90%.

As to `Cc1ccc(C(=O)Nc2nc(-c3ccccn3)cs2)cc1S(=O)(=O)N1CCOCC1`, the 90% effect concentration (IC90) came out at 9.81 µM. Also, the half-maximal inhibitory concentration (IC50) (HEPG2TOX_HILL_SLOPE 1.67, HEPG2TOX_R_SQUARED 0.851, PBLUC_HILL_SLOPE 9.71, PBLUC_R_SQUARED 0.0304, read-out: LUCIFERASE INFECTION ASSAY - IC50) was found to be 7.83 µM.
For `O=C(Nc1cc(Cl)cc(Cl)c1)Nc1cc(Cl)cc(Cl)c1`, the concentration for an effect of 90% (IC90) came out at 1.35 µM. The IC50 (HEPG2TOX_HILL_SLOPE 1.67, HEPG2TOX_R_SQUARED 0.958, PBLUC_HILL_SLOPE 0.797, PBLUC_R_SQUARED 0.657, read-out: LUCIFERASE INFECTION ASSAY - IC50) was 0.0855 µM.
For `COc1ccc(-c2csc3ncnc(Sc4nnc(-c5cccc(C)c5)n4CC(N)=O)c23)cc1`, the concentration for an effect of 90% (IC90) amounted to 2.23 µM. Also, the IC50 (HEPG2TOX_HILL_SLOPE 1.67, 2.83, HEPG2TOX_R_SQUARED 0.956, 0.971, PBLUC_HILL_SLOPE 8.88, 0.995, PBLUC_R_SQUARED 0.771, 0.637, read-out: LUCIFERASE INFECTION ASSAY - IC50) came out at 0.702 µM.
In the case of `CNc1snc(C)c1C(=O)NCc1csc(-c2ccccc2)n1`, the IC90 stood at 4.69 µM. The half-inhibitory concentration (IC50) (HEPG2TOX_HILL_SLOPE 1.65, HEPG2TOX_R_SQUARED 0.956, PBLUC_HILL_SLOPE 1.96, PBLUC_R_SQUARED 0.757, read-out: LUCIFERASE INFECTION ASSAY - IC50) stood at 1.53 µM.
As to `CNc1nc2cnc(Nc3cccc(Cl)c3)cc2n1Cc1ccco1`, the concentration for an effect of 90% (IC90) was over 10 µM. Under “HEPG2TOX_HILL_SLOPE 1.66, HEPG2TOX_R_SQUARED 0.976, PBLUC_HILL_SLOPE 2.05, PBLUC_R_SQUARED 0.683, read-out: LUCIFERASE INFECTION ASSAY - IC50”, the IC50 is 3.63 µM.
Consider `COc1ccc(NS(=O)(=O)c2cc(NC(=O)c3ccsc3)ccc2Cl)cc1`, for which the concentration for an effect of 90% (IC90) was 0.419 µM. For the same compound, the IC50 (HEPG2TOX_HILL_SLOPE 1.65, HEPG2TOX_R_SQUARED 0.932, PBLUC_HILL_SLOPE 10.6, PBLUC_R_SQUARED 0.586, read-out: LUCIFERASE INFECTION ASSAY - IC50) was determined as 0.34 µM.
As for `N#C/C(=N\Nc1cccc(C(F)(F)F)c1)C(=O)C1CC1`, the IC90 amounted to 10.7 µM. Further, for the setting “HEPG2TOX_HILL_SLOPE 1.67, HEPG2TOX_R_SQUARED 0.925, PBLUC_HILL_SLOPE 4.09, PBLUC_R_SQUARED 0.467, read-out: LUCIFERASE INFECTION ASSAY - IC50”, the concentration for half-maximal inhibition (IC50) stood at 6.27 µM.
Take `COc1ccc(C(=O)NN(C)c2nc3ccccc3nc2C(F)(F)F)cc1`: the 90% effect concentration (IC90) is 4.32 µM. The IC50 (HEPG2TOX_HILL_SLOPE 1.65, HEPG2TOX_R_SQUARED 0.987, PBLUC_HILL_SLOPE 2.07, PBLUC_R_SQUARED 0.843, read-out: LUCIFERASE INFECTION ASSAY - IC50) was determined as 1.49 µM.
Turning to `COc1ccc(-n2nc(C)c3c2NC(=O)CC3c2ccc3c(c2)OCO3)cc1` (stereo unspecified), the 90% effect concentration (IC90) is over 8.74 µM. Also, under “HEPG2TOX_HILL_SLOPE 1.66, HEPG2TOX_R_SQUARED 0.931, PBLUC_HILL_SLOPE 1.06, PBLUC_R_SQUARED 0.555, read-out: LUCIFERASE INFECTION ASSAY - IC50”, the IC50 was 1.33 µM.
In the case of `CCNc1ccc(S(=O)(=O)C(F)(F)F)cc1NC(=O)/C=C/c1ccc(OC)c(OC)c1`, the IC90 was over 10 µM. In addition, the concentration for half-maximal inhibition (IC50) (HEPG2TOX_HILL_SLOPE 1.67, 1.94, HEPG2TOX_R_SQUARED 0.906, 0.973, PBLUC_HILL_SLOPE 2.77, PBLUC_R_SQUARED 0.318, read-out: LUCIFERASE INFECTION ASSAY - IC50) is 7.07 µM.
Take `CNc1nc2cnc(Nc3cccc(NC(C)=O)c3)cc2n1-c1ccccc1`: the IC90 is over 10 µM. The IC50 (HEPG2TOX_HILL_SLOPE 1.67, HEPG2TOX_R_SQUARED 0.953, read-out: LUCIFERASE INFECTION ASSAY - IC50) was over 10 µM.
Consider `CC(C)C(Nc1ccc(C(F)(F)F)cc1Cl)C(=O)Nc1ccc(-n2cncn2)nc1` (stereo unspecified), for which the concentration for an effect of 90% (IC90) is over 10 µM. Moreover, for the setting “HEPG2TOX_HILL_SLOPE 1.66, HEPG2TOX_R_SQUARED 0.94, PBLUC_HILL_SLOPE 0.872, PBLUC_R_SQUARED 0.779, read-out: LUCIFERASE INFECTION ASSAY - IC50”, the 50% inhibitory concentration (IC50) amounted to 2.14 µM.
With `c1ccc2c(-c3cc(Nc4ccc5[nH]ccc5c4)ncn3)cccc2c1`, the concentration for an effect of 90% (IC90) came out at 4.49 µM. For the same compound, the half-maximal inhibitory concentration (IC50) (HEPG2TOX_HILL_SLOPE 1.68, HEPG2TOX_R_SQUARED 0.859, PBLUC_HILL_SLOPE 1.6, PBLUC_R_SQUARED 0.806, read-out: LUCIFERASE INFECTION ASSAY - IC50) came out at 1.13 µM.
With `Cc1ccc(N/N=C(\C=N\N)C(=O)c2ccc(Cl)cc2)cc1`, the 90% effect concentration (IC90) was over 10.5 µM. The IC50 (HEPG2TOX_HILL_SLOPE 1.68, HEPG2TOX_R_SQUARED 0.854, PBLUC_HILL_SLOPE 3.07, PBLUC_R_SQUARED 0.149, read-out: LUCIFERASE INFECTION ASSAY - IC50) came out at 5.16 µM.
In the case of `Cc1ccc(-n2c(C)cc(C(=O)COC(=O)c3[nH]nc4ccccc34)c2C)cc1`, the IC90 is over 10 µM. The IC50 (HEPG2TOX_HILL_SLOPE 1.65, HEPG2TOX_R_SQUARED 0.879, read-out: LUCIFERASE INFECTION ASSAY - IC50) was over 10 µM.
In the case of `O=C(OCc1cnn(-c2ccccc2)c1)c1cc([N+](=O)[O-])ccc1N1CCCC1`, the 90% effect concentration (IC90) is over 10 µM. Further, the IC50 (HEPG2TOX_HILL_SLOPE 1.67, HEPG2TOX_R_SQUARED 0.935, PBLUC_HILL_SLOPE 0.776, PBLUC_R_SQUARED 0.413, read-out: LUCIFERASE INFECTION ASSAY - IC50) came out at 9.4 µM.
For `COc1cccc(-c2nc(-c3ccc(O)cc3O)cs2)c1OC`, the IC90 was over 10 µM. Also, the IC50 (HEPG2TOX_HILL_SLOPE 1.65, HEPG2TOX_R_SQUARED 0.767, read-out: LUCIFERASE INFECTION ASSAY - IC50) was over 10 µM.
As for `O=C1CSC(=N/N=C2\SC(CC(=O)Nc3ccc(Br)cc3)C(=O)N2Cc2ccco2)N1` (stereo unspecified), the IC90 was over 10 µM. Where the note is “HEPG2TOX_HILL_SLOPE 1.67, HEPG2TOX_R_SQUARED 0.878, PBLUC_HILL_SLOPE 0.95, PBLUC_R_SQUARED 0.607, read-out: LUCIFERASE INFECTION ASSAY - IC50”, the IC50 stood at 5.04 µM.
Consider `Cc1cc(O)cc2c1C(=O)/C(=C/c1cc(Cl)cc3c1OCOC3)O2`, for which the 90% effect concentration (IC90) was over 9.57 µM. For the same compound, the IC50 (HEPG2TOX_HILL_SLOPE 1.65, HEPG2TOX_R_SQUARED 0.863, PBLUC_HILL_SLOPE 8.6, PBLUC_R_SQUARED 0.504, read-out: LUCIFERASE INFECTION ASSAY - IC50) turned out to be 8.66 µM.
For `CC(NC(=O)Cc1ccc(-c2ccccc2)cc1)c1cccs1` (stereo unspecified), the concentration for an effect of 90% (IC90) came to 9.4 µM. For the same compound, where the note is “HEPG2TOX_HILL_SLOPE 1.66, HEPG2TOX_R_SQUARED 0.927, PBLUC_HILL_SLOPE 1.26, PBLUC_R_SQUARED 0.823, read-out: LUCIFERASE INFECTION ASSAY - IC50”, the half-inhibitory concentration (IC50) is 1.64 µM.
Consider `Cc1cc(C)n(-c2ccc(CN3c4ccc(S(N)(=O)=O)cc4CC3C)cc2)n1` (stereo unspecified), for which the IC90 was 1.54 µM. Also, the IC50 (HEPG2TOX_HILL_SLOPE 1.67, HEPG2TOX_R_SQUARED 0.825, PBLUC_HILL_SLOPE 15.8, PBLUC_R_SQUARED 0.537, read-out: LUCIFERASE INFECTION ASSAY - IC50) was found to be 1.34 µM.
Turning to `CCOc1ccc(CCC2CCN(C(=O)Cn3c(=O)[nH]c(=O)c4ccccc43)CC2)cc1`, the IC90 is over 10 µM. Also, the IC50 (HEPG2TOX_HILL_SLOPE 1.65, HEPG2TOX_R_SQUARED 0.957, PBLUC_HILL_SLOPE 2.43, PBLUC_R_SQUARED 0.244, read-out: LUCIFERASE INFECTION ASSAY - IC50) was determined as 5.37 µM.
In the case of `COc1cccc(Nc2ncc(C(=O)c3cccc(-c4cccnc4)c3)[nH]2)c1`, the IC90 was 0.376 µM. Besides, where the note is “HEPG2TOX_HILL_SLOPE 1.65, HEPG2TOX_R_SQUARED 0.891, PBLUC_HILL_SLOPE 14.3, PBLUC_R_SQUARED 0.795, read-out: LUCIFERASE INFECTION ASSAY - IC50”, the IC50 was found to be 0.322 µM.
As for `COc1ccc(-c2cc(NS(=O)(=O)c3cccc(F)c3)n(-c3ccc(Cl)c(Cl)c3)n2)cc1`, the IC90 is over 6.7 µM. Besides, the concentration for half-maximal inhibition (IC50) (HEPG2TOX_HILL_SLOPE 1.65, HEPG2TOX_R_SQUARED 0.946, PBLUC_HILL_SLOPE 2.05, PBLUC_R_SQUARED 0.116, read-out: LUCIFERASE INFECTION ASSAY - IC50) is 2.95 µM.
Regarding `COc1ccc(CNc2nc3cnc(Nc4cccc(Cl)c4)cc3n2C)cc1OC`, the IC90 came out at 3.92 µM. The IC50 (HEPG2TOX_HILL_SLOPE 1.65, HEPG2TOX_R_SQUARED 0.962, PBLUC_HILL_SLOPE 14.9, PBLUC_R_SQUARED 0.209, read-out: LUCIFERASE INFECTION ASSAY - IC50) amounted to 3.38 µM.
Regarding `Cc1cc(NC(=O)c2cc(-c3ccc(Br)cc3)nc3ccccc23)n(-c2ccc([N+](=O)[O-])cc2)n1`, the IC90 turned out to be 1.17 µM. Under “HEPG2TOX_HILL_SLOPE 1.65, HEPG2TOX_R_SQUARED 0.917, PBLUC_HILL_SLOPE 13.2, PBLUC_R_SQUARED 0.485, read-out: LUCIFERASE INFECTION ASSAY - IC50”, the IC50 was 0.991 µM.
Regarding `CCOc1ccc(S(=O)(=O)N(Cc2nnc(-c3cccs3)o2)c2ccccc2OC)cc1`, the IC90 is over 10 µM. Besides, where the note is “HEPG2TOX_HILL_SLOPE 1.67, HEPG2TOX_R_SQUARED 0.357, PBLUC_HILL_SLOPE 2.18, PBLUC_R_SQUARED 0.1, read-out: LUCIFERASE INFECTION ASSAY - IC50”, the IC50 was found to be 6.59 µM.
Turning to `COc1ccc(N(CC(=O)Nc2ccc(Cl)cc2Cl)S(=O)(=O)c2cccs2)cc1`, the IC90 is 3.69 µM. In addition, the IC50 (HEPG2TOX_HILL_SLOPE 1.66, HEPG2TOX_R_SQUARED 0.962, PBLUC_HILL_SLOPE 19.1, PBLUC_R_SQUARED 0.554, read-out: LUCIFERASE INFECTION ASSAY - IC50) was 3.29 µM.

These data come from ChEMBL document CHEMBL4483862, “Open-source discovery of chemical leads for next-generation chemoprotective antimalarials” (2018).
